Assays:
[1] = biological target: T1, B2 bradykinin receptor (Homo sapiens, UniProt P30411); format: cell membranes, Membrane; conditions: chem-1; note: in other assays of this panel Not Active means under 50% inhibition at 10 µM
T1 sequence (P30411 whole entry): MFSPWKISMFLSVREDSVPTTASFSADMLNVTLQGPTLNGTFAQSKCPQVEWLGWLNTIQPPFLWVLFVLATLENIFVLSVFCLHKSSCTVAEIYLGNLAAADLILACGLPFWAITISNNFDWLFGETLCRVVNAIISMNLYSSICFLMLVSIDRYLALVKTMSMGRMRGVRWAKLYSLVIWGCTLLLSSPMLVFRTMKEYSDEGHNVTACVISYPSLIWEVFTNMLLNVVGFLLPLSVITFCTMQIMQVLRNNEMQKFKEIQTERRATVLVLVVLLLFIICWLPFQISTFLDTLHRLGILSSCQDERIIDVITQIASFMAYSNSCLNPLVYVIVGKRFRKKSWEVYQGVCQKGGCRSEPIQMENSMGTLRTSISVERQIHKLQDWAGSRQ

[2] = DRUGMATRIX: Tumor Necrosis Factor (TNF), Non-Selective radioligand binding (ligand: [125I] TNF-alpha); format: cell membranes, Membrane; conditions: u-937; Not Active = under 50% inhibition at 10 µM
[3] = biological target: Vasopressin V1a receptor (Homo sapiens, UniProt P37288); format: cell membranes, Membrane; conditions: hek293; note: in other assays of this panel Not Active means under 50% inhibition at 10 µM
[4] = biological target: Prostaglandin G/H synthase 1 (Homo sapiens, UniProt P23219); assay: biochemical; format: tissue-based, Platelet; conditions: platelet;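 note: inhibition of COX-1 enzyme activity, with arachidonic acid supplied as substrate; in other assays of this panel Not Active means under 50% inhibition at 10 µM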
[5] = DRUGMATRIX: Imidazoline I2, Central radioligand binding (ligand: [3H] Idazoxan); format: cell membranes, Rattus norvegicus, Wistar, Cerebral cortex, Membrane; conditions: Not Active = under 50% inhibition at 10 µM
[6] = biological target: Insulin receptor (Rattus norvegicus, UniProt P15127); format: cell membranes, Wistar, Liver, Membrane; note: in other assays of this panel Not Active means under 50% inhibition at 10 µM
[7] = DRUGMATRIX: Leukotriene, BLT (LTB4) radioligand binding (ligand: [3H]LTB4); format: cell membranes, Membrane; conditions: u-937; Not Active = under 50% inhibition at 10 µM
[8] = biological target: T2, Muscarinic acetylcholine receptor M2 (Homo sapiens, UniProt P08172); format: cell membranes, CHO-K1, Membrane; conditions: for Ki: read-out: Ki
T2 sequence (P08172 whole entry): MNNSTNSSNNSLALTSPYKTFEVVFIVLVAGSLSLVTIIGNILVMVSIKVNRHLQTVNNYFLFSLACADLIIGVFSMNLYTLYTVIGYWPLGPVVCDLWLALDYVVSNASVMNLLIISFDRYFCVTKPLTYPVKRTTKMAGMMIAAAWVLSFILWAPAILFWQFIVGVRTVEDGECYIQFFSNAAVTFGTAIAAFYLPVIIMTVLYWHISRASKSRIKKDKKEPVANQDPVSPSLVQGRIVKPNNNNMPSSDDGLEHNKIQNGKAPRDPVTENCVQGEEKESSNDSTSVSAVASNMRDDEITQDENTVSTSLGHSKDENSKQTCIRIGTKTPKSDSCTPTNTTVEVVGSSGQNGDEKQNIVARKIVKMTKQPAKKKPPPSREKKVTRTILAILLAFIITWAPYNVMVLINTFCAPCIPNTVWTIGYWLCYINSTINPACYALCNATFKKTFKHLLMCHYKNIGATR

[9] = biological target: Nitric oxide synthase 1 (Rattus norvegicus, UniProt P29476); format: tissue-based, Cerebellum; note: in other assays of this panel Not Active means under 50% inhibition at 10 µM
[10] = biological target: T3, Nitric oxide synthase, inducible (Mus musculus, UniProt P29477); set-up: species or system Escherichia coli
T3 sequence (P29477 whole entry): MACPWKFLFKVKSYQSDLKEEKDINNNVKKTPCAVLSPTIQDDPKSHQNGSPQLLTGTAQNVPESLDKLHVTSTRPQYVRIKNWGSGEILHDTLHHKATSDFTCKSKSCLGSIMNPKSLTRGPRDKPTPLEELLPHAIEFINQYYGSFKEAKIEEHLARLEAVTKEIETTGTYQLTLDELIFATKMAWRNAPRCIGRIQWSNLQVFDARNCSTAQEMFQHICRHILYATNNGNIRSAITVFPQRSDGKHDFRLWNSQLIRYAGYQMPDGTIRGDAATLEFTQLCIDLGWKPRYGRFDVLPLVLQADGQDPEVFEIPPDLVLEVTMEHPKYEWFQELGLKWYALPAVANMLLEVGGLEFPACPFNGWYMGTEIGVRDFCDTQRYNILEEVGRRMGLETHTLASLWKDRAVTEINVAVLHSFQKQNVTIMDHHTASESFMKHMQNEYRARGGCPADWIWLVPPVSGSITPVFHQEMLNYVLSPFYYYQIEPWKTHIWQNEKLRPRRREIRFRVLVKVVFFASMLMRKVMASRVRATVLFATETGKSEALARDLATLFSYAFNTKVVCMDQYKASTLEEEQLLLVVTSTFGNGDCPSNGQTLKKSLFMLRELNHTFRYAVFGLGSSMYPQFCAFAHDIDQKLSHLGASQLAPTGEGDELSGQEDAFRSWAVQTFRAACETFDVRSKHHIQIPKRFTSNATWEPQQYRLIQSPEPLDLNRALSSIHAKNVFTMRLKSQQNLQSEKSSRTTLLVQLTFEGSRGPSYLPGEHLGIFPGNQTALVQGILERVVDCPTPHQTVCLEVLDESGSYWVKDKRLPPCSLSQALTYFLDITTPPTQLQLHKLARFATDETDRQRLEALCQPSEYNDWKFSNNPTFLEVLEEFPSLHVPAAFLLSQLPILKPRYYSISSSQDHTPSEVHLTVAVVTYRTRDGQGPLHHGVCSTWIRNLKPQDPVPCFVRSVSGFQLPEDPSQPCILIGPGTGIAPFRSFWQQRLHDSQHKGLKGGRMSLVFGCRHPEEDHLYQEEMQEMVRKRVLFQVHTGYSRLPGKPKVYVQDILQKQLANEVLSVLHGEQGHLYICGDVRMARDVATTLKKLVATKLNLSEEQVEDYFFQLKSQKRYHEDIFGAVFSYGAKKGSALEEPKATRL

[11] = biological target: T4, Neutrophil elastase (Homo sapiens, UniProt P08246); format: tissue-based
T4 sequence (P08246 whole entry): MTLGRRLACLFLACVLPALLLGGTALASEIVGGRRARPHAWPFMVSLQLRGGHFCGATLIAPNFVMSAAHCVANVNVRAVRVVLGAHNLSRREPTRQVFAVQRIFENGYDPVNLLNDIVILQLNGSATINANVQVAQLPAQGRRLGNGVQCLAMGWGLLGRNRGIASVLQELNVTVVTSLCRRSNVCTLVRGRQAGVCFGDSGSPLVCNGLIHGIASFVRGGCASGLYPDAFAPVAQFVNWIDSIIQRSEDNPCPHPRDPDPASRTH

[12] = biological target: Matrix metalloproteinase-9 (Homo sapiens, UniProt P14780); format: cell-based
[13] = biological target: Protein phosphatase 3 catalytic subunit alpha (Homo sapiens, UniProt Q08209); set-up: species or system Escherichia coli

Matrix metalloproteinase-9, sequence (P14780 whole entry): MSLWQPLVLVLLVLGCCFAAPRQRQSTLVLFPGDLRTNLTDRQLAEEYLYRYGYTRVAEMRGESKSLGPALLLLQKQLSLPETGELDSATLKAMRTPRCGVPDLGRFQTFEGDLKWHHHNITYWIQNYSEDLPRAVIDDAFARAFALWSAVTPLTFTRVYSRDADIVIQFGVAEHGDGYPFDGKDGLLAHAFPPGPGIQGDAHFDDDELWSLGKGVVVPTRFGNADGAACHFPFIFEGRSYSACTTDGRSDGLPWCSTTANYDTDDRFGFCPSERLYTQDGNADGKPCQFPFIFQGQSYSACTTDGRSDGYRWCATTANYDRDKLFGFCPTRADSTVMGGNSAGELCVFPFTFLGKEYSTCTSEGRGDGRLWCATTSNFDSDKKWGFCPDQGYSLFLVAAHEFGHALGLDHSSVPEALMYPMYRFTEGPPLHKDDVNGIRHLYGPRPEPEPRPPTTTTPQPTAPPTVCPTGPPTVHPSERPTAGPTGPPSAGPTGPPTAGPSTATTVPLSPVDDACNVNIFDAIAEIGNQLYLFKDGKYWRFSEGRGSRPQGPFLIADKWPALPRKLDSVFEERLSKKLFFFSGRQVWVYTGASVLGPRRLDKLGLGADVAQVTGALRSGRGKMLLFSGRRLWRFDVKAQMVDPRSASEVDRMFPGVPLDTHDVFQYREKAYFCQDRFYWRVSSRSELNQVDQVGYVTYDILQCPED
Nitric oxide synthase 1, sequence (P29476 whole entry): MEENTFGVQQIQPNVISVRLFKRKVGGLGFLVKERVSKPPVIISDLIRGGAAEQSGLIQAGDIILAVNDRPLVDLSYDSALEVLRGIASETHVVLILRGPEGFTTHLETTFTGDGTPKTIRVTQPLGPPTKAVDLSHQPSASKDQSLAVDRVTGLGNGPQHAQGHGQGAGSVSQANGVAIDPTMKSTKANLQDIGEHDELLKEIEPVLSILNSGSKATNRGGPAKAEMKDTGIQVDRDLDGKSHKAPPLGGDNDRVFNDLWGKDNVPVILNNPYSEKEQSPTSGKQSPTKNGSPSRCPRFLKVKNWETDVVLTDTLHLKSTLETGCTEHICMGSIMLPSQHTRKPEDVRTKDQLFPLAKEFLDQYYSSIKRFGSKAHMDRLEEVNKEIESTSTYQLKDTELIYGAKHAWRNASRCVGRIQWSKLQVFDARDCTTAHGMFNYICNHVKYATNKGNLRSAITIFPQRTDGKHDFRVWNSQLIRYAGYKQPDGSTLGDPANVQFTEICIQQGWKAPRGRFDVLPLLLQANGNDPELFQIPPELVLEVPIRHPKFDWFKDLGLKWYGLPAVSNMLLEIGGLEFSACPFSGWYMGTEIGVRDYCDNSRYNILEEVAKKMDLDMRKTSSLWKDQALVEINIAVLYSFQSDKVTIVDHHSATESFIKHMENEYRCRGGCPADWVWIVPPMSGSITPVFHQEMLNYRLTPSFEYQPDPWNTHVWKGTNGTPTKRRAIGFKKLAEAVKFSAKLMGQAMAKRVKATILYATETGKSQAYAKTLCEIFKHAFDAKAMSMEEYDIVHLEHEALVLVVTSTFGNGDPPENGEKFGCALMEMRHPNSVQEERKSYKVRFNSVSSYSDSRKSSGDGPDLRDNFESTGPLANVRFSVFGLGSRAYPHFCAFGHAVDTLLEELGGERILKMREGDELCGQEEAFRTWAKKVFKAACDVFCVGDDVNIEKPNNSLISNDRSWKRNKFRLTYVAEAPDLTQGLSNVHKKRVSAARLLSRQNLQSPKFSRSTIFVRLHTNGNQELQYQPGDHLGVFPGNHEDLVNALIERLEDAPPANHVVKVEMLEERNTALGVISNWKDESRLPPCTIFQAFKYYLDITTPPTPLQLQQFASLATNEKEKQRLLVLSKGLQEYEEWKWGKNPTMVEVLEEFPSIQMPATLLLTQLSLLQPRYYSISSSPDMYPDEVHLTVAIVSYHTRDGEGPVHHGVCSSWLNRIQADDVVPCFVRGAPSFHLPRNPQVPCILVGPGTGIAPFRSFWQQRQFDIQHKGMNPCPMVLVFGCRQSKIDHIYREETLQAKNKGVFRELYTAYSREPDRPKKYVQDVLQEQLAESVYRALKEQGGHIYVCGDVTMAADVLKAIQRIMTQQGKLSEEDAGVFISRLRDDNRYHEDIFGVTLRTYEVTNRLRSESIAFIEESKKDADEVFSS
Prostaglandin G/H synthase 1, sequence (P23219 whole entry): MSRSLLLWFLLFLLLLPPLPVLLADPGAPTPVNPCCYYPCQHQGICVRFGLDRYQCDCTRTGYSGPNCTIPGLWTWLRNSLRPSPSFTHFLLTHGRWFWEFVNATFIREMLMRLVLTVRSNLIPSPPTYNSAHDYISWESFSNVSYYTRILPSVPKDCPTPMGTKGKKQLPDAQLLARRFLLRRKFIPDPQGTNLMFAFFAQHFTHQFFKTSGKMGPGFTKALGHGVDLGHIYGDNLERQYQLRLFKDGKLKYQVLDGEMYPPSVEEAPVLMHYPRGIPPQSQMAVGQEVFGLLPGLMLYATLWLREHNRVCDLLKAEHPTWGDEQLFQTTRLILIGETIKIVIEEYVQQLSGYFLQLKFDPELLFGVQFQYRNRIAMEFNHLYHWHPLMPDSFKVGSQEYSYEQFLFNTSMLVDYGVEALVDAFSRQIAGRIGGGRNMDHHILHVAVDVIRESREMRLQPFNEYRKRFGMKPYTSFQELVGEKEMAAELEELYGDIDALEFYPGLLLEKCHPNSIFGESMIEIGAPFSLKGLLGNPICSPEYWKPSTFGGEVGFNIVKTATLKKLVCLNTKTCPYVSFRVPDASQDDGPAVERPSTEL
Vasopressin V1a receptor, sequence (P37288 whole entry): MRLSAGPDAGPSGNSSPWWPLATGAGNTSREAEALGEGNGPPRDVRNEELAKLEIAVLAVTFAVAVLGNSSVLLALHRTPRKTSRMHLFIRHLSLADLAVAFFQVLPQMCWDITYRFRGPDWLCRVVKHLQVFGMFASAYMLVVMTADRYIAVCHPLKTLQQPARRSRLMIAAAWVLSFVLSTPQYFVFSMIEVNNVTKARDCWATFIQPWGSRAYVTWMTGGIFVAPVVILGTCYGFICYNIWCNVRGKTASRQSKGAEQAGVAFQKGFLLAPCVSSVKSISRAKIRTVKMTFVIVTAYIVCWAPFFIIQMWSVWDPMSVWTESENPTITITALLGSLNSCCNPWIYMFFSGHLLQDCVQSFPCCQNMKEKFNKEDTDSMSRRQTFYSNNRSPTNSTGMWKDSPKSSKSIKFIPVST
Insulin receptor, sequence (P15127 27-759 limits assumed): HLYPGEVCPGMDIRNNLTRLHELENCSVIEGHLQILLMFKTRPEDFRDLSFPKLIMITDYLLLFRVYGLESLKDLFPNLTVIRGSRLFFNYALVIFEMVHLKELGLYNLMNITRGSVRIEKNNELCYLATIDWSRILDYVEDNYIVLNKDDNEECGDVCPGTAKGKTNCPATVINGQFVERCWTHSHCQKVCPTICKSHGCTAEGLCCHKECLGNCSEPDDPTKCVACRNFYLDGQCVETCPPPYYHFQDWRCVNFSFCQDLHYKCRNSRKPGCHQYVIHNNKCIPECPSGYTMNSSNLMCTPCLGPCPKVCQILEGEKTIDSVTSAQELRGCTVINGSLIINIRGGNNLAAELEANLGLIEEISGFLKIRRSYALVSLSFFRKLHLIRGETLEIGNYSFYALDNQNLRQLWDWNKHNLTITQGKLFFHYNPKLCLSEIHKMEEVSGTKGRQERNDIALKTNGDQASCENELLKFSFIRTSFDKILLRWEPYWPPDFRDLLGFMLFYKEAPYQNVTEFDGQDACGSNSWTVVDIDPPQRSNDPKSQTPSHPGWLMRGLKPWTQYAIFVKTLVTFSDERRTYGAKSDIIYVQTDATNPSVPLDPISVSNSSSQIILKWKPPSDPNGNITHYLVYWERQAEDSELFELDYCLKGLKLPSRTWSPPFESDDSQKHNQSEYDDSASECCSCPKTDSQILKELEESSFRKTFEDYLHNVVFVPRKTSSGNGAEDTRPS
Insulin receptor, sequence (P15127 764-1383 limits assumed): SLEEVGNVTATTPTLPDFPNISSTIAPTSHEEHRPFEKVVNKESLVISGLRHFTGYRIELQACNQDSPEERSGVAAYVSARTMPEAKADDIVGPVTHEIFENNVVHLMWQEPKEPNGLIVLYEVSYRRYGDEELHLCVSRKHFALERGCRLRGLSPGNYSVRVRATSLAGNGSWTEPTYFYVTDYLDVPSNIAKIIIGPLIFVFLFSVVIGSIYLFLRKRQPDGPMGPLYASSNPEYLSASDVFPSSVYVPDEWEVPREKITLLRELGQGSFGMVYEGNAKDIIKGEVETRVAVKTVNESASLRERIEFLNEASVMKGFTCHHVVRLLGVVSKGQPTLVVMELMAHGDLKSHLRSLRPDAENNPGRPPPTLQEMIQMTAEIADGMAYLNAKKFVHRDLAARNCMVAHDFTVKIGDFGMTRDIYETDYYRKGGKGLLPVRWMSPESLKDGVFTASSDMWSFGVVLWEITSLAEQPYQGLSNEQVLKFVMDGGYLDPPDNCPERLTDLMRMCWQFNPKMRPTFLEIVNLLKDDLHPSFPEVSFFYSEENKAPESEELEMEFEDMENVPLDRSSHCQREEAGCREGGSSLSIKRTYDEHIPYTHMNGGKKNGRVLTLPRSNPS

Compound | IC50 [1] | IC50 [2] | Ki [2] | IC50 [3] | IC50 [4] | IC50 [5] | Ki [5] | IC50 [6] | IC50 [7] | Ki [7] | IC50 ([8]; cho-k1) | IC50 [9] | IC50 [10] | IC50 [11] | IC50 [12] | IC50 [13] | Ki [10] | IC50 ([8]; read-out: IC50) | Ki [8]
CN[C@@H]1[C@@H](O)[C@@H](O[C@@H]2[C@@H](O)[C@H](O[C@H]3OC(CN)=CC[C@H]3N)[C@@H](N)C[C@H]2N)OC[C@]1(C)O [SISOMICIN] | Not Active | Not Active | Not Active | Not Active | Not Active | Not Active | Not Active | Not Active | Not Active | Not Active | Not Active | Not Active | Not Active | Not Active | Not Active | Not Active | – | – | –
NNc1ccccc1 [PHENYLHYDRAZINE] | Not Active | Not Active | Not Active | Not Active | Not Active | Not Active | Not Active | Not Active | Not Active | Not Active | Not Active | Not Active | Not Active | Not Active | Not Active | Not Active | – | – | –
C[C@](N)(Cc1ccc(O)cc1)C(=O)O [METYROSINE] | Not Active | Not Active | Not Active | Not Active | Not Active | Not Active | Not Active | Not Active | Not Active | Not Active | Not Active | Not Active | Not Active | Not Active | Not Active | Not Active | – | – | –
CN1CCN2c3ccccc3Cc3ccccc3C2C1 (configuration not stated) [MIANSERIN] | Not Active | – | – | Not Active | Not Active | – | – | Not Active | – | – | – | Not Active | Not Active | Not Active | Not Active | Not Active | – | – | –
CSc1ccc2c(c1)N(CCC1CCCCN1C)c1ccccc1S2 (configuration not stated) [THIORIDAZINE] | Not Active | – | – | Not Active | Not Active | – | – | Not Active | – | – | – | Not Active | Not Active | Not Active | Not Active | Not Active | – | – | –
O=C1c2c(O)ccc(O)c2C(=O)c2c(NCCNCCO)ccc(NCCNCCO)c21 [MITOXANTRONE] | Not Active | Not Active | Not Active | Not Active | Not Active | Not Active | Not Active | Not Active | Not Active | Not Active | – | Not Active | – | Not Active | Not Active | Not Active | Not Active | – | –
CN(C)CCCN1c2ccccc2CCc2ccc(Cl)cc21 [CLOMIPRAMINE] | Not Active | – | – | Not Active | Not Active | – | – | Not Active | – | – | – | Not Active | Not Active | Not Active | Not Active | Not Active | – | 241 nM | 86 nM
CC(C)(O)c1ccccc1CC[C@@H](SCC1(CC(=O)O)CC1)c1cccc(/C=C/c2ccc3ccc(Cl)cc3n2)c1 [MONTELUKAST] | Not Active | – | – | Not Active | Not Active | – | – | Not Active | – | – | Not Active | Not Active | Not Active | Not Active | Not Active | Not Active | – | – | –
Clc1ccccc1C(c1ccccc1)(c1ccccc1)n1ccnc1 [CLOTRIMAZOLE] | Not Active | – | – | Not Active | Not Active | – | – | Not Active | – | – | – | Not Active | Not Active | Not Active | Not Active | Not Active | – | 14500 nM | 5170 nM
COc1cccc(C2(O)CCCCC2CN(C)C)c1 (configuration not stated) [TRAMADOL] | Not Active | – | – | Not Active | Not Active | – | – | Not Active | – | – | Not Active | Not Active | Not Active | Not Active | Not Active | Not Active | – | – | –
O=C(CCCN1CCC(O)(c2ccc(Cl)cc2)CC1)c1ccc(F)cc1 [HALOPERIDOL] | Not Active | – | – | Not Active | Not Active | – | – | Not Active | – | – | Not Active | Not Active | Not Active | Not Active | Not Active | Not Active | – | – | –
COc1ccc(CCN2CCC(Nc3nc4ccccc4n3Cc3ccc(F)cc3)CC2)cc1 [ASTEMIZOLE] | Not Active | – | – | Not Active | Not Active | – | – | Not Active | – | – | – | Not Active | Not Active | Not Active | Not Active | Not Active | – | – | –
